Data as given in PubChem BioAssay (NCI).
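Each compound was tested at five concentrations against cells in 96-well plates for 48 hours. Here, GI50 denotes the concentration required for 50% inhibition of growth. TGI: concentration producing complete growth inhibition.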

Key:
Assay in all cases: growth of human tumour cells (NCI), 48 h
[1] = test system: SK-MEL-5 melanoma
[2] = test system: OVCAR-3 ovarian
[3] = test system: SR leukemia
[4] = test system: CAKI-1 renal
[5] = test system: U251 CNS
[6] = test system: UACC-257 melanoma
[7] = test system: ACHN renal
[8] = test system: NCI-H23 lung
[9] = test system: SK-OV-3 ovarian
[10] = test system: SW-620 colon
[11] = test system: NCI-H522 lung
[12] = test system: HCT-15 colon
[13] = test system: A549 NSCLC
[14] = test system: SN12C renal
[15] = test system: K-562 leukemia
[16] = test system: TK-10 renal
[17] = test system: OVCAR-4 ovarian
[18] = test system: NCI/ADR-RES ovarian
[19] = test system: NCI-H460 lung
[20] = test system: LOX IMVI melanoma
[21] = test system: UACC-62 melanoma
[22] = test system: OVCAR-8 ovarian
[23] = test system: MOLT-4 leukemia
[24] = test system: HCT-116 colon
[25] = test system: HS 578T breast
[26] = test system: A498 renal
[27] = test system: MDA-MB-231 breast
[28] = test system: SNB-19 CNS
[29] = test system: SF-295 CNS

OC(CNc1ccnc2cc(Cl)ccc12)CNC1CCCCC1 (stereo not drawn)
GI50 [1]: 1770 nM
TGI [1]: 3.34 µM
GI50 [2]: 15 µM
TGI [2]: 34.7 µM
GI50 [3]: 1950 nM
TGI [3]: 5.13 µM
GI50 [4]: 1840 nM
TGI [4]: 4.05 µM
GI50 [5]: 2140 nM
TGI [5]: 5.37 µM
GI50 [6]: 1780 nM
TGI [6]: 3.33 µM
GI50 [7]: 6.06 µM
TGI [7]: 19.4 µM
GI50 [8]: 15.9 µM
TGI [8]: 41 µM
GI50 [9]: 10.5 µM
TGI [9]: 32.8 µM
GI50 [10]: 4.79 µM
TGI [10]: 18.3 µM
GI50 [11]: 2720 nM
TGI [11]: 6.55 µM
GI50 [12]: 3.78 µM
TGI [12]: 17 µM
GI50 [13]: 8.12 µM
TGI [13]: 21.7 µM
GI50 [14]: 12 µM
TGI [14]: 48.4 µM
GI50 [15]: 2070 nM
TGI [15]: 5.17 µM
GI50 [16]: 3.61 µM
TGI [16]: 13.6 µM
GI50 [17]: 3.6 µM
TGI [17]: 23.8 µM
GI50 [18]: 18 µM
TGI [18]: 53.9 µM
GI50 [19]: 13.8 µM
TGI [19]: 30.2 µM
GI50 [20]: 4.57 µM
TGI [20]: 16.7 µM
GI50 [21]: 2150 nM
TGI [21]: 5.2 µM
GI50 [22]: 5.07 µM
TGI [22]: 19.9 µM
GI50 [23]: 9.15 µM
TGI [23]: 31.9 µM
GI50 [24]: 4.66 µM
TGI [24]: 16.7 µM
GI50 [25]: 4.95 µM
TGI [25]: 23.8 µM
GI50 [26]: 1520 nM
TGI [26]: 8.16 µM
GI50 [27]: 4.21 µM
TGI [27]: 18.7 µM
GI50 [28]: 22.4 µM
TGI [28]: 75.5 µM
GI50 [29]: 2130 nM
TGI [29]: 4.9 µM
